What was measured:
[1] = system: MACV-p; experiment: organism not typed; type: cell-based, Machupo (MACV); conditions: Vero, 24 h, read-out: MACV-p EC50 (nM)
[2] = system: VSV-p; experiment: microbe, parasite or virus in culture; type: cell-based; conditions: Vesicular stomatitis virus, Vero, 24 h, read-out: VSV-p EC50 (nM)
[3] = system: LASV-p; experiment: organism not typed; type: cell-based, Lassa (LASV); conditions: Vero, 24 h, read-out: LASV-p EC50 (nM)
[4] = in vitro; conditions: African green monkey
[5] = system: TCRV-p; experiment: organism not typed; type: cell-based; conditions: Vero, 24 h, read-out: TCRV-p EC50 (nM)
[6] = system: JUNV-p; experiment: organism not typed; type: cell-based, Junin (JUNV); conditions: Vero, 24 h, read-out: JUNV-p EC50 (nM)
[7] = biological target: hERG channel (Homo sapiens, UniProt Q12809); conditions: pH 7.4
Chain of hERG channel (Q12809 whole entry): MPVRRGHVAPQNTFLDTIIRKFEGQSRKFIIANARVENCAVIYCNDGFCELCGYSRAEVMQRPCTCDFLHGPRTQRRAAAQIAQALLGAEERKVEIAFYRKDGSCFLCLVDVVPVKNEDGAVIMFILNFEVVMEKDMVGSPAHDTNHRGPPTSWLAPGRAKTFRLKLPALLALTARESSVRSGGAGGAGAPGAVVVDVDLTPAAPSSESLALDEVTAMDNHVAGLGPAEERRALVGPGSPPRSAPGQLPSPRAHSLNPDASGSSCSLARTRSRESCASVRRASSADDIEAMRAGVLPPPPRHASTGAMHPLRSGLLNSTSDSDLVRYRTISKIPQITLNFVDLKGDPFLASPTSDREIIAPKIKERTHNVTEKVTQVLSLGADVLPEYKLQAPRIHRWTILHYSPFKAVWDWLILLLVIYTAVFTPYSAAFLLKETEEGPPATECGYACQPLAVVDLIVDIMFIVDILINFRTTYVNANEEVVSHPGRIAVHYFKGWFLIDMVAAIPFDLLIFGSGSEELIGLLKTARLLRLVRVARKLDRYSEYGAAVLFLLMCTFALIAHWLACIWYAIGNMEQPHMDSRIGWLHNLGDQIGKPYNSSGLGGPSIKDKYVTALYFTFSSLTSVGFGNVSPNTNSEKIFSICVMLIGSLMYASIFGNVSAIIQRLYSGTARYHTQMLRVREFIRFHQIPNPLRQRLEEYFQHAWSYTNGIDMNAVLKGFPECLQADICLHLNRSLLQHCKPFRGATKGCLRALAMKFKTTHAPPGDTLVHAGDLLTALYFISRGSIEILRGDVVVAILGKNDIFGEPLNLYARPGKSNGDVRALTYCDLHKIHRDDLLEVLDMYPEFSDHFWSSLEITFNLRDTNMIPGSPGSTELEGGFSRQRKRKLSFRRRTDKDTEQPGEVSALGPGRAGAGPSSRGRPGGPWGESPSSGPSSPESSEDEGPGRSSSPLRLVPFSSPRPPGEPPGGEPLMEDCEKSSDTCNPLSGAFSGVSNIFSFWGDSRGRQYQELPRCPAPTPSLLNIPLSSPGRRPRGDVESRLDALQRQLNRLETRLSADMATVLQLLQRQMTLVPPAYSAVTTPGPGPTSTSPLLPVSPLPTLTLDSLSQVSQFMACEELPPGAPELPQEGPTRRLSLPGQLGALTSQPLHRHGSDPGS

[8] = system: GTOV-p; experiment: organism not typed; type: cell-based, Guanarito (GTOV); conditions: Vero, 24 h, read-out: GTOV-p EC50 (nM)

Row | Compound | EC50 [1] [nM] | EC50 [2] [nM] | EC50 [3] [nM] | CC50 [4] [nM] | EC50 [5] [nM] | EC50 [6] [nM] | hERG % Inhibition [7] [%] | EC50 [8] [nM]
1 | COc1ccc(-n2cnc3ccc(-c4ccc(N5CCOCC5)cc4)cc32)cc1 [Example A16, 1-(4-methoxyphenyl)-6-[4-(morpholin-4-yl)phenyl]-1H-1,3-benzodiazole] | > 25 | > 1000 | 17.2 | > 100000 | > 25 | 15.3 |  | 
2 | CC(C)Oc1ccc(-c2ccc3ncn(-c4ccc(OC(C)C)cc4)c3n2)cc1 [Example B2, 3,5-bis[4-(propan-2-yloxy)phenyl]-3H-imidazo[4,5-b]pyridine] |  |  |  |  |  |  | <10 | 
3 | CC(C)Oc1ccc(-c2ccc3nnn(-c4ccc(OC(C)C)cc4)c3c2)cc1 [Example B12, 1,6-bis[4-(propan-2-yloxy)phenyl]-1H-1,2,3-benzotriazole] |  |  |  |  |  |  | 17 | 
4 | CC(C)Oc1ccc(-n2cnc3ccc(-c4ccc(C(C)(C)O)cc4)nc32)cc1 [Example B1, 2-(4-{3-[4-(propan-2-yloxy)phenyl]-3H-imidazo[4,5-b]pyridin-5-yl}phenyl)propan-2-ol] | 7.09 | > 1000 | 1.61 | 12200 | 28 | 4.95 |  | 0.88
5 | CC(C)Oc1ccc(-c2ccc3ncc(-c4ccc(OC(F)F)cc4)n3c2)cc1 [Example C40, 3-[4-(difluoromethoxy)phenyl]-6-[4-(propan-2-yloxy)phenyl]imidazo[1,2a]pyridine] | 5.85 | 6170 | 3.83 | 4110 | 22.6 | 0.97 |  | 1.35
6 | OC1(c2ccc(-c3ccc4ncc(-c5ccc(C6(O)CCC6)cc5)n4c3)cc2)CCC1 [Example C47, 1-(4-{3-[4-(1-hydroxycyclobutyl)phenyl]imidazo[1,2-a]pyridin-6-yl}phenyl)cyclobutan-1-ol] | 0.5 | 4340 | 1.8 | 7860 | 1.17 | 0.55 |  | 0.44
7 | CC(C)Oc1ccc(-c2cnc3ccc(-c4ccc(OC(C)C)c(F)c4)cn23)cc1 [Example C24, 6-[3-fluoro-4-(propan-2-yloxy)phenyl]-3-[4-(propan-2-yloxy)phenyl]imidazo[1,2-a]pyridine] | 0.875 | 9810 | 4.58 | 4180 | 3.91 | 0.416 |  | 0.15
8 | CC(C)Oc1ccc(-c2cnc3ccc(-c4ccc5c(ccn5C)c4)cn23)cc1 [Example C22, 1-methyl-5-{3-[4-(propan-2-yloxy)phenyl]imidazo[1,2-a]pyridin-6-yl}-1H-indole] | 0.335 |  | 2.33 | 24400 | 4.94 | 0.415 |  | 0.45
9 | CC(C)Oc1ccc(-c2cnc3ncc(-c4ccc5[nH]ccc5c4)n3c2)cc1 [Example D16, 5-{6-[4-(propan-2-yloxy)phenyl]imidazo[1,2-a]pyrimidin-3-yl}-1H-indole] | 19.1 |  | 5.37 | 7530 | 19.9 | 1.05 |  | 3.52
10 | COc1ccc(-n2cnc3ccc(-c4ccc(N(C)C)cc4)cc32)cc1 [Example A7, 4-[1-(4-methoxyphenyl)-1H-1,3-benzodiazol-6-yl]-N,N-dimethylaniline] | 17 | 980 | 8.9 | 3960 | > 25 | 1.8 |  | 
11 | c1cc(-c2ccc3ncc(-c4ccc(OC5CC5)cc4)n3c2)ccc1OC1CC1 [Example C46, 3,6-bis(4-cyclopropoxyphenyl)imidazo[1,2-a]pyridine] | 8.47 | 4550 | 7.23 | 4610 | 22.5 | 4.42 |  | 1.26
12 | CC(C)Oc1ccc(-c2ccc3ncc(-c4ccc(C5CC5)cc4)n3c2)cc1 [Example C30, 3-(4-cyclopropylphenyl)-6-[4-(propan-2-yloxy)phenyl]imidazo[1,2-a]pyridine] | 1.08 | 6960 | 1.02 | 3980 | 3.83 | 0.82 |  | 0.05
13 | COc1ccc(-n2cnc3ccc(-c4ccc(C(C)(C)O)cc4)cc32)cc1 [Example A8, 2-{4-[1-(4-methoxyphenyl)-1H-1,3-benzodiazol-6-yl]phenyl}propan-2-ol] | 22.3 | > 1000 | 6.4 | 9540 | 21.7 | 3.98 |  | 
14 | CC(=O)c1ccc(-c2ccc3ncn(-c4ccc(OC(C)C)cc4)c3c2)cc1 [Example A26, 1-(4-{1-[4-(propan-2-yloxy)phenyl]-1H-1,3-benzodiazol-6-yl}phenyl)ethan-1-one] | 0.7 |  | 0.59 | 7520 | 1.45 | 0.81 |  | 0.73
15 | CC(C)Oc1ccc(-c2cnc3ccc(-c4ccc5cc[nH]c5c4)cn23)cc1 [Example C11, 6-{3-[4-(propan-2-yloxy)phenyl]imidazo[1,2-a]pyridin-6-yl}-1H-indole] | 10 | 3090 | 2.83 | 25200 | 18.4 | 3.21 |  | 0.86
16 | CC(C)Oc1ccc(-c2ccc3ncc(-c4ccc(OCC5CC5)cc4)n3c2)cc1 [Example C33, 3-[4-(cyclopropylmethoxy)phenyl]-6-[4-(propan-2-yloxy)phenyl]imidazo[1,2a]pyridine] | 5.31 | 4770 | 1.3 | 4770 | 6.57 | 2.3 |  | 0.91
17 | CC(C)Oc1ccc(-n2cnc3ccc(-c4ccc(N(C)C)cc4)cc32)cc1 [Example A18, N,N-dimethyl-4-{1-[4-(propan-2-yloxy)phenyl]-1H-1,3-benzodiazol-6-yl}aniline] | 2.27 | > 1000 | 1.08 | 14000 | 12.5 | 1.55 |  | 0.07
18 | Cc1cc2ncn(-c3ccc(OC(C)C)cc3)c2cc1-c1ccc(OC(C)C)cc1 [Example A30, 5-methyl-1,6-bis[4-(propan-2-yloxy)phenyl]-1H-1,3-benzodiazole] | 0.21 | 5310 | 0.53 | 3670 | 0.07 | 0.03 | <10 | 0.21
19 | CC(C)Oc1ccc(-n2nnc3ccc(-c4ccc5[nH]ccc5c4)cc32)cc1 [Example B13, 6-(1H-indol-5-yl)-1-[4-(propan-2-yloxy)phenyl]-1H-1,2,3-benzotriazole] | 5.58 | 5360 | 1.53 | 6620 | 20.4 | 1.8 |  | 1.24
20 | CC(C)Oc1ccc(-c2cnc3ccc(-c4ccc(C5(O)COC5)cc4)cn23)cc1 [Example C28, 3-(4-{3-[4-(propan-2-yloxy)phenyl]imidazo[1,2-a]pyridin-6-yl}phenyl)oxetan-3-ol] | > 25 |  | 17.3 | > 100000 | > 25 | 14.9 |  | 
21 | COc1ccc(-c2ccc3ncn(-c4ccc(OC)cc4)c3c2)cc1 [Example A3, 1,6-bis(4-methoxyphenyl)-1H-1,3-benzodiazole] | > 25 |  | 7.6 | < 300 | > 25 | > 25 |  | 
22 | CC(C)Oc1ccc(-c2cnc3ccc(-c4ccc(C5(O)CC5)cc4)cn23)cc1 [Example C27, 1-(4-{3-[4-(propan-2-yloxy)phenyl]imidazo[1,2-a]pyridin-6-yl}phenyl)cyclopropan-1-ol] | 0.68 | > 10000 | 0.66 | 5280 | 0.58 | 0.51 |  | 0.24
23 | COc1ccc(-n2cnc3ccc(-c4cccc(OC)c4)cc32)cc1 [Example A6, 6-(3-methoxyphenyl)-1-(4-methoxyphenyl)-1H-1,3-benzodiazole] | > 25 |  | > 25 | 9720 | > 25 | > 25 |  | 
24 | CC(=O)c1ccc(-c2ccc3cnn(-c4ccc(OC(C)C)cc4)c3c2)cc1 [Example D3, 1-(4-{1-[4-(propan-2-yloxy)phenyl]-1H-indazol-6-yl}phenyl)ethan-1-one] | 15.5 |  | 7.04 | 15900 | > 25 | 20.2 |  | 
25 | COc1ccc(-n2cnc3ccc(-c4ccc5[nH]ccc5c4)cc32)cc1 [Example A12, 6-(1H-indol-5-yl)-1-(4-methoxyphenyl)-1H-1,3-benzodiazole] | > 25 | 800 | 0.81 | 200 | 21.4 | 19.3 |  | 
26 | CC(C)Oc1ccc(-c2ccc3ncc(-c4ccc(C(C)(C)O)cc4)n3c2)cc1 [Example C38, 2-(4-{6-[4-(propan-2-yloxy)phenyl]imidazo[1,2-a]pyridin-3-yl}phenyl)propan-2-ol] |  |  | 0.84 |  | 1.77 |  |  | 0.2
27 | CC(C)Oc1ccc(-c2cnc3ccc(-c4ccc(C5(O)CCC5)cc4)cn23)cc1 [Example C9, 1-(4-{3-[4-(propan-2-yloxy)phenyl]imidazo[1,2-a]pyridin-6-yl}phenyl)cyclobutan-1-ol] | 0.71 | 5810 | 1.15 | 3970 | 1.7 | 0.45 |  | 0.27

— US20220281825A1 (priority 2016, published 2022)
